Measurements from US20100320428A1, “GASEOUS DIELECTRICS WITH LOW GLOBAL WARMING POTENTIALS” (priority 2006, published 2010).
Where a name gives a salt, the structure may show the parent alone. Read-outs that look alike come from different tables or passages of the source.

Key:
[1] = boiling point; Table 2, preferred dielectric compounds; cited from earlier work
[2] = Breakdown voltage at maximum system pressure; format: physicochemical; conditions: for Breakdown voltage at maximum pressure: at maximum pressure: 5 atmospheres (73.5 psia), or lower pressure at which the gas liquefies; for Breakdown voltage compared with air: 1 atmosphere and maximum system pressure
[3] = Dielectric strength by ASTM D2477; format: physicochemical; conditions: 1 atmosphere pressure, 0.1 inch gap, ambient temperature; ASTM D2477 or from literature
[4] = normal state; cited from earlier work
[5] = gas phase; cited from earlier work
[6] = atmospheric pressure; cited from earlier work

| SMILES | MY BP [1] [°C] | also measured |
| --- | --- | --- |
| CC(N)C(=O)O (racemic) [DL-2-aminopropanoic acid] | −50.2 |  |
| FCC(F)(F)F [1,1,1,2-Tetrafluoroethane] | −26.1 |  |
| FC(F)(F)C#CC(F)(F)F [1,1,1,4,4,4-hexafluoro-2-butyne] | −24.6 |  |
| FC(F)C(F)F [1,1,2,2-Tetrafluoroethane] | −23.0 |  |
| O=C(C(=O)C(F)F)C(F)F [1,1,4,4-tetrafluoro-butane-2,3-dione] | −81.0 |  |
| C#CC(F)(F)F [3,3,3-trifluoro-propyne] | −48.0 |  |
| N [Ammonia] | −33.3 |  |
| FCF [Difluoromethane] | −51.7 |  |
| FC(F)OC(F)(F)F [Difluoromethyl trifluoromethyl ether] | −35.3 |  |
| CC [Ethane] | −88.6 |  |
| COC(F)(F)F [Ether, methyl trifluoromethyl] | −24.0 |  |
| CCF [Fluoroethane] | −37.7 |  |
| FC(F)C(F)(F)F [Gas R125, Pentafluoroethane] |  | Breakdown voltage at maximum pressure [2]: 32 kV/0.1 inch gap; Dielectric strength [3]: 6.4 kV/0.1 inch gap |
| FCC(F)(F)F [Gas R134a, 1,1,1,2-Tetrafluoroethane] |  | Breakdown voltage at maximum pressure [2]: 33 kV/0.1 inch gap; Dielectric strength [3]: 6.6 kV/0.1 inch gap |
| CC(F)(F)F [Gas R143a, 1,1,1-Trifluoroethane] |  | Breakdown voltage at maximum pressure [2]: 29 kV/0.1 inch gap; Dielectric strength [3]: 5.8 kV/0.1 inch gap |
| CC(F)F [Gas R152a, 1,1-Difluoroethane] |  | Breakdown voltage at maximum pressure [2]: 29.5 kV/0.1 inch gap; Dielectric strength [3]: 5.9 kV/0.1 inch gap |
| Cl [HCl, hydrogen chloride] |  | Breakdown voltage compared with air [2]: greater then air |
| FC(F)(F)C(F)(F)F [Hexafluoroethane] | −78.2 |  |
| Cl [Hydrogen chloride] | −85.0 |  |
| N#N [Nitrogen] | −195.8 |  |
| [N-]=[N+]=O [Nitrous oxide] | −88.5 |  |
| FC(F)(F)C(F)(F)C(F)(F)F [Octafluoropropane] | −36.7 |  |
| FS(F)(F)(F)(F)F [SF6, Sulfur hexafluoride] |  | Toxicity [4]: non-toxic; Temperature below which it does not decompose [5]: ≥ 500 °C; Breakdown voltage compared with air [6]: nearly three times higher than air; Breakdown voltage at maximum pressure [2]: 70 kV/0.1 inch gap; Dielectric strength [3]: 14.0 kV/0.1 inch gap |
| F[Si](F)(F)F [SiF4, silicon tetrafluoride] |  | Breakdown voltage compared with air [2]: greater then air |
| FC(F)(F)F [Tetrafluoromethane] | −128.1 |  |
| N#CC(F)(F)F [Trifluoroacetonitrile] | −68.8 |  |
| FC(F)F [Trifluoromethane] | −82.1 |  |
| O=CC(F)(F)F [trifluoroacetaldehyde] | −21.0 |  |
| FC(F)(F)S [trifluoromethane thiol] | −36.7 |  |
